These results are taken from ChEMBL document CHEMBL5154816, “Structure-Based Discovery and Optimization of Furo[3,2-c]pyridin-4(5H)-one Derivatives as Potent and Second Bromodomain (BD2)-Selective Bromo and Extra Terminal Domain (BET) Inhibitors” (J Med Chem, 2022).

Data set [1] in a line: Metabolic stability in human hepatocytes assessed as hepatic clearance at 1 uM measured up to 60 mins in presence of NADPH by HPLC-MS/MS analysis. Type of data set: ADME, cell-based, Hepatocyte.
Data set [2] can be described thus: Metabolic stability in human hepatocytes assessed as hepatic extraction ratio at 1 uM measured up to 60 mins in presence of NADPH by HPLC-MS/MS analysis. The following applies: read-out: ERH. The format is ADME, cell-based, Hepatocyte.
A short description of data set [3]: Metabolic stability in rat hepatocytes assessed as hepatic extraction ratio at 1 uM measured up to 60 mins in presence of NADPH by HPLC-MS/MS analysis. The format is ADME, cell-based, Hepatocyte. The following applies: read-out: ERH.
The nature of data set [4]: Metabolic stability in rat liver microsomes assessed as half life at 1 uM measured up to 60 mins in presence of NADPH by HPLC-MS/MS analysis. Type of data set: ADME, Microsome.
Data set [5] in a line: Metabolic stability in rat hepatocytes assessed as hepatic clearance at 1 uM measured up to 60 mins in presence of NADPH by HPLC-MS/MS analysis. The format is ADME, cell-based, Hepatocyte.
A short description of data set [6]: Metabolic stability in rat liver microsomes assessed as intrinsic clearance at 1 uM measured up to 60 mins in presence of NADPH by HPLC-MS/MS analysis. Particulars: 1 h. The format is ADME, Microsome.
Data set [7] in a line: Metabolic stability in human liver microsomes assessed as intrinsic clearance at 1 uM measured up to 60 mins in presence of NADPH by HPLC-MS/MS analysis. Type of data set: ADME, Microsome. The following applies: 1 h.
The nature of data set [8]: Metabolic stability in human liver microsomes assessed as half life at 1 uM measured up to 60 mins in presence of NADPH by HPLC-MS/MS analysis. The format is ADME, Microsome.
For data set [9], the target named is SWI/SNF-related matrix-associated actin-dependent regulator of chromatin subfamily A member 2 (Homo sapiens) (UniProt P51531). The data set can be described thus: Binding affinity to SMARCA2A (unknown origin) assessed as change in melting temperature at 100 uM incubated for 30 mins by thermal shift assay.
The target in data set [10] is PH-interacting protein (Homo sapiens) (UniProt Q8WWQ0). Nature of the data set: Binding affinity to PHIP-2 (unknown origin) assessed as change in melting temperature at 100 uM incubated for 30 mins by thermal shift assay.
Data set [11] deals with SWI/SNF-related matrix-associated actin-dependent regulator of chromatin subfamily A member 2 (Homo sapiens) (UniProt P51531). The data set can be described thus: Binding affinity to SMARCA2B (unknown origin) assessed as change in melting temperature at 100 uM incubated for 30 mins by thermal shift assay.
Data set [12] can be described thus: Cytotoxicity against human HFL1 cells assessed as cell growth inhibition incubated for 72 hrs by Cell titre Glo-luminiscence cell viability assay. The format is toxicity, cell-based.
In data set [13] the target is T1, Bromodomain-containing protein 4 (Homo sapiens, UniProt O60885). Nature of the data set: Inhibition of C-terminal His6-tagged BRD4 BD1 (unknown origin) using H-YSGRGK(Ac)GGK(Ac)GLGK(Ac)-GGAK(Ac)RHRK-Biotin-OH as substrate incubated for 1 hrs by HTRF assay.
Data set [14] deals with T1, Bromodomain-containing protein 4. Nature of the data set: Inhibition of C-terminal His6-tagged BRD4 BD2 (unknown origin) using H-YSGRGK(Ac)GGK(Ac)GLGK(Ac)-GGAK(Ac)RHRK-Biotin-OH as substrate incubated for 1 hrs by HTRF assay.
Another data set is filed under the species Homo sapiens. The data set can be described thus: Selectivity index, ratio of IC50 for BRD4 BD1 (unknown origin) to IC50 of BRD4 BD2 (unknown origin).

Chain of SWI/SNF-related matrix-associated actin-dependent regulator of chromatin subfamily A member 2 (Homo sapiens) (P51531 whole entry): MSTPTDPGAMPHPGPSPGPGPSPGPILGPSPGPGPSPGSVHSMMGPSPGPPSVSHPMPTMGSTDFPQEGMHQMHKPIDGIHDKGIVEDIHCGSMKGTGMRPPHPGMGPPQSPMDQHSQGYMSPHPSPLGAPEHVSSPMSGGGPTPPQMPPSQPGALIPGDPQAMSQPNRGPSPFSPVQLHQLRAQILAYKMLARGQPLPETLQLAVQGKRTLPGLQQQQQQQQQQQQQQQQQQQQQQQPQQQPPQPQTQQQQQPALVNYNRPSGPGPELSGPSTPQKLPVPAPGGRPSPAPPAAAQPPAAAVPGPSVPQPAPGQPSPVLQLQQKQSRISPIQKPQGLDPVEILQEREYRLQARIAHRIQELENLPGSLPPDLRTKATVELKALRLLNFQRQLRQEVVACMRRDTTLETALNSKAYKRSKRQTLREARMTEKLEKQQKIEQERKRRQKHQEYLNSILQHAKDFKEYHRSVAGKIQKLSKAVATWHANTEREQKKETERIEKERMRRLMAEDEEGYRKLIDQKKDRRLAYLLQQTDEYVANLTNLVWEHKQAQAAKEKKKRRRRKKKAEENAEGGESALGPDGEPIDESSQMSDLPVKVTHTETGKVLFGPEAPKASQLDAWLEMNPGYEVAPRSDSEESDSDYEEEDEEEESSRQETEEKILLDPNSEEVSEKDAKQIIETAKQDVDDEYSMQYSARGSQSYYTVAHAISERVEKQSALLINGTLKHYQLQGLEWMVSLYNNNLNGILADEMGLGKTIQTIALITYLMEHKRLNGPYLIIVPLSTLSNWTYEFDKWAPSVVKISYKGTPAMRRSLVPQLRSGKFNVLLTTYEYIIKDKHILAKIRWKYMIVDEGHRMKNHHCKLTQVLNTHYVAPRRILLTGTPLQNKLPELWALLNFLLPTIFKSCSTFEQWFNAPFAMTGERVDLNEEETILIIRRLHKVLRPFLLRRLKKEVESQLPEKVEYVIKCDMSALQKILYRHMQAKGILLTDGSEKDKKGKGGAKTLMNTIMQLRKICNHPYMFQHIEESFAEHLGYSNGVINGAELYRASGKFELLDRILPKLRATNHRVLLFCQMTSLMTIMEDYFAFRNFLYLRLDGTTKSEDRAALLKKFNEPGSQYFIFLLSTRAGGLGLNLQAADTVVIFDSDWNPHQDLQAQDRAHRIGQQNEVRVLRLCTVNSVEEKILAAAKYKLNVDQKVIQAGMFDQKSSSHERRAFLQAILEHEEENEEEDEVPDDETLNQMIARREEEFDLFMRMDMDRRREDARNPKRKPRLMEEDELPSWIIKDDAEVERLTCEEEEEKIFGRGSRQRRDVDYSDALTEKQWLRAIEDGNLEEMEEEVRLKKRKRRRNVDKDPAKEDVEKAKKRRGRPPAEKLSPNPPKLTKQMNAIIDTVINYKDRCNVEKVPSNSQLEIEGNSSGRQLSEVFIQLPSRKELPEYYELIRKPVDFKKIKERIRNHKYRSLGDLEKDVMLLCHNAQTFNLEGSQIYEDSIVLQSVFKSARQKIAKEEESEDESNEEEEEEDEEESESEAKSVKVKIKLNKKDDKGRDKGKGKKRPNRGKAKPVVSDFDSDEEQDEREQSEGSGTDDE

Regarding `O=C(c1ccc(F)cc1)C1CCN(CCn2c(=O)[nH]c3ccccc3c2=O)CC1` [KETANSERIN], the figures for the CLhep predicted at 1 µM in [1] and in data set [5] were 14.7 mL/min/kg and 25 mL/min/kg, respectively. Moreover, the hepatic extraction ratio at 1 h, 1 µM was 0.712 in data set [2] and 0.81 in [3]. Besides, the half-life at 1 µM in data set [4] was 18.9 min; in data set [8], 34 min. In addition, the CLH in [6] was found to be 0.131 mL/min/g; in data set [7], 0.051 mL/min/g.
Consider `Cc1sc2c(c1C)C(c1ccc(Cl)cc1)=N[C@@H](CC(=O)OC(C)(C)C)c1nnc(C)n1-2`, for which the ΔTm in [9] was -0.25 °C; in [10], -1 °C; in data set [11], 0.25 °C.
Regarding `CCS(=O)(=O)Nc1ccc(Oc2ccc(F)cc2F)c(-c2cn(C)c(=O)c3cc(-c4cc(C)c(OCCO)c(C)c4)oc23)c1`, the IC50 at 72 h in data set [12] was less than 10 nM. Besides, the IC50 in [13] came to 0.56 nM; in data set [14], 0.6 nM. Also, in the data set listed under Homo sapiens, the Ratio IC50 stood at 0.93.
As for `CCS(=O)(=O)Nc1ccc(Oc2c(OC)cccc2OC)c(-c2cn(C)c(=O)c3cc(-c4cc(C)c(OCCO)c(C)c4)oc23)c1`, the figures for the IC50 in data set [13] and in data set [14] were 9.8 nM and 2 nM, respectively. For the same molecule, the Ratio IC50 in the data set filed under Homo sapiens came to 4.9.
In the case of `Cc1cc(-c2cc3c(=O)n(C)cc(-c4cc(CS(=O)(=O)C(C)(C)C)ccc4Oc4ccc(F)cc4F)c3o2)cc(C)c1OCCO`, the IC50 worked out at 3.3 nM in data set [13] and 1.4 nM in data set [14]. Moreover, the Ratio IC50 in the data set filed under Homo sapiens is 2.36.
Consider `CCc1ncc(-c2cc3c(=O)n(C)cc(-c4cc(C(C)(C)O)ccc4Oc4c(C)cc(F)cc4C)c3o2)[nH]1`, for which the half-inhibitory concentration (IC50) in [13] was 121 nM; in [14], 0.6 nM. The Ratio IC50 in the data set listed under Homo sapiens was determined as 202.
For `CCS(=O)(=O)Nc1ccc(Oc2c(C)cc(F)cc2C)c(-c2cn(C)c(=O)c3cc(-c4cc(C)c(OCCO)c(C)c4)oc23)c1`, in that order: 6.5 nM, 0.8 nM and 8.12.
In the same order, the values of `CC(=O)Nc1ccc(Oc2ccc(F)cc2F)c(-c2cn(C)c(=O)c3cc(-c4cc(C)c(OCCO)c(C)c4)oc23)c1` are 0.52 nM, 0.83 nM and 0.63.
